Measured values published in patent US12473262B2, “Aryl hydrocarbon receptor activators” (Oregon State University, priority 2019, dated 2025).

Target: aryl hydrocarbon receptor (AhR) (Mus musculus (Mouse), UniProt P30561)
Assay: AhR ligand screening: AhRE-luciferase reporter in transfected Hepa1 cells
Format: cell-based
Conditions: for Fold @ 1 nM: fold change of luciferase expression at 1 nM test compound relative to vehicle (0.1% DMSO); for Fold @ 100 nM: fold change of luciferase expression at 100 nM test compound relative to vehicle (0.1% DMSO); for Fold @ 10 uM: fold change of luciferase expression at 10 uM test compound relative to vehicle (0.1% DMSO); for Fold relative to benchmark @ 100 nM: luciferase expression at 100 nM test compound relative to 100 nM benchmark compound 11-cl-BBQ
Source text: The AhR is a ligand-activated transcription factor that dimerizes with ARNT to regulate gene expression, and genes that are regulated by AhR ligands have AhR response elements (AhRE) in their promotor regions.
Briefly, Hepa1 cells were transfected with a reporter construct consisting of AhRE linked to luciferase. The addition of AhR ligands to the transfected cells induces luciferase production that is directly proportional to the amount of AhR activation. We used this reporter system to identify novel compounds with AhR-activating properties. Transfected Hepa1 cells were plated at a density of 1×10^4 cells/well in 100 μL of cell culture media in 96 well plates and grown overnight. […] Following incubation with the compounds, the media was removed, and cells were harvested with lysis buffer. The lysates were transferred to opaque 96 well plates, where they were assayed well-by-well for luciferase activity by injection of luciferase assay substrate with a 2 sec mixing time and 15 sec integration period on a Tropix TR717 microplate luminometer. Data were expressed as fold induction of luciferase relative to vehicle (0.1% DMSO) treated cells.

Chain of aryl hydrocarbon receptor (AhR) (P30561 10-805): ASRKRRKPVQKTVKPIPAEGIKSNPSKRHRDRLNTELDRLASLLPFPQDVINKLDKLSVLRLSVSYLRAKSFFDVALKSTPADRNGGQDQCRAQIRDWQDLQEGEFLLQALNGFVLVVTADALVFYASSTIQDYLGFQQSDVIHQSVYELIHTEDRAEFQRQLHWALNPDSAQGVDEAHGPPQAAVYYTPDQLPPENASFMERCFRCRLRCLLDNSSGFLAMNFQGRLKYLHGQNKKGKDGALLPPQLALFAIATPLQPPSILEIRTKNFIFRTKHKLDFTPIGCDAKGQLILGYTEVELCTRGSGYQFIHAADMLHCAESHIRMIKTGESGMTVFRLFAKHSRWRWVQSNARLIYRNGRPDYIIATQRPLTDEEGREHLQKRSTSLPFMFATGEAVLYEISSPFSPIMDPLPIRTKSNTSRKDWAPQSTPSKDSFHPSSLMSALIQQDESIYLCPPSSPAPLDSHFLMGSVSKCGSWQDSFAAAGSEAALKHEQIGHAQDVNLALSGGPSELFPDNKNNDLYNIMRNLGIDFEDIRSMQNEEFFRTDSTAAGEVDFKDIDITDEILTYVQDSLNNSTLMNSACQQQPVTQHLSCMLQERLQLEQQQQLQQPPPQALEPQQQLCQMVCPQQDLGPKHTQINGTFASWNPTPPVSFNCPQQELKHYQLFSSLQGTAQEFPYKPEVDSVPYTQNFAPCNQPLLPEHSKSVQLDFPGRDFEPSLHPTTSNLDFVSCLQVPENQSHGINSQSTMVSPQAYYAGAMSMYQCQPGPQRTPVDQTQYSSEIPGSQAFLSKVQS
Chain of aryl hydrocarbon receptor (AhR) (P53762 whole entry partner): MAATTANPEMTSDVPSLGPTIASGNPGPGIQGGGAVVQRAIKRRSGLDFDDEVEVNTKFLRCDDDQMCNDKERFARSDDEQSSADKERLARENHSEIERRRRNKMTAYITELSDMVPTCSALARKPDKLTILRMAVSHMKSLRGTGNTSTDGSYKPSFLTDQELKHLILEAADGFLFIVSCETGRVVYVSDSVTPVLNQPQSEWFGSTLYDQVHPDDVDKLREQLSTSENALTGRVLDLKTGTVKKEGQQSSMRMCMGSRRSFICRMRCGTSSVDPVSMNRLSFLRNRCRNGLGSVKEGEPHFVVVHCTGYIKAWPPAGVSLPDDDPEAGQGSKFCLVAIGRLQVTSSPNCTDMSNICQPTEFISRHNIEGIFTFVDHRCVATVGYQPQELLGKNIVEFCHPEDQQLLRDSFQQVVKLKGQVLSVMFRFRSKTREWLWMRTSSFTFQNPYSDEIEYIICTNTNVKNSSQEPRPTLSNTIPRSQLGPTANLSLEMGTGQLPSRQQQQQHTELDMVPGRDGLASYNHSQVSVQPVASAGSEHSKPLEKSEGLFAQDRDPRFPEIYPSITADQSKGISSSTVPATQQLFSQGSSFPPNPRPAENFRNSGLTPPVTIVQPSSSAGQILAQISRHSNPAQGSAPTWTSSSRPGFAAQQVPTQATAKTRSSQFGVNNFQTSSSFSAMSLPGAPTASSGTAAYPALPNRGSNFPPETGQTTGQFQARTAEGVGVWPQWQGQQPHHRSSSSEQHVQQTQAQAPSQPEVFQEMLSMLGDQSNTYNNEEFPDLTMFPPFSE

Structure (SMILES)	Fold @ 1 nM [fold]	Fold @ 100 nM [fold]	Fold @ 10 uM [fold]	Fold relative to benchmark @ 100 nM [fold]
Cn1cc(C(=O)c2cccc3ccccc23)c2cc(Cl)ccc21 [Compound 359, (5-chloro-1-methyl-1H-indol-3-yl)(naphthalen-1-yl)methanone]	1	1	6	0.03
O=c1c2cccc3cccc(c32)c2nc3ccc(Cl)cc3n12 [Compound 363, 7-chloro-3,10-diazapentacyclo[10.7.1.0^2,10.0^4,9.0^16,20]icosa-1(19),2,4(9),5,7,12,14,16(20),17-nonaen-11-one]	4	14	30	0.69
O=C(c1cccc2ccccc12)c1c[nH]c2ccc(Cl)cc12 [Compound 364, (5-chloro-1H-indol-3-yl)(naphthalen-1-yl)methanone]	1	2	11	0.05
O=C(c1cccc2ccccc12)n1ccc2cc(Cl)ccc21 [Compound 366]	1	1	11	0.03
O=c1c2cccc3cccc(c32)c2cc3ccc(Cl)cc3n12 [Compound 405, 7-chloro-10-azapentacyclo[10.7.1.0^2,10.0^4,9.0^16,20]icosa 1(19),2,4(9),5,7,12,14,16(20),17-nonaen-11-one]	8	31		0.78
O=C(c1cc2cc(Cl)ccc2o1)c1cccc2ccccc12 [Compound 406, (5-chlorobenzofuran-2-yl)(naphthalen-1-yl)methanone]	1	1	7.5	0.03
O=C(c1ccncc1)n1c(-c2ccccc2)nc2ccc(Cl)cc21 [Compound 431]	1	1	8	0.03
O=C(c1ccncc1)n1c(-c2ccccc2)nc2cc(Cl)ccc21 [Compound 432]	1	1	7	0.03
O=C(c1cccc2ccccc12)c1c[nH]c2cc(Cl)ccc12 [Compound 433]	1	1	7	0.03
O=C1c2ccccc2-c2nc3ccc(Cl)cc3n21 [Compound 488, 4-chloro-1,8-diazatetracyclo[7.7.0.0^2,7.0^10,15]hexadeca-2,4,6,8,10,12,14-heptaen-16-one]	1	1	4	0.03
O=C1c2ccccc2-c2nc3cc(Cl)ccc3n21 [Compound 489, 5-chloro-1,8-diazatetracyclo-[7.7.0.0^2,70.^10,15]hexadeca-2,4,6,8,10,12,14-heptaen-16-one]	1	1	5	0.03
O=C(c1cccc2ccccc12)n1c(-c2ccccc2)nc2cc(Cl)ccc21 [Compound 490, (5-chloro-2-phenyl-1H-benzo[d]imidazol-1-yl)(naphthalen-1-yl)methanone]	1	1	17	0.03
O=C(c1cccc2ccccc12)n1c(-c2ccccc2)nc2ccc(Cl)cc21 [Compound 491]	1	1	24	0.03
O=C(c1ccccc1)n1c(-c2ccc(F)cc2)nc2cc(Cl)ccc21 [Compound 492]	1	1	14	0.03
O=C(c1ccccc1)n1c(-c2ccc(F)cc2)nc2ccc(Cl)cc21 [Compound 493]	1	1	16	0.03
COc1ccc(-c2nc3cc(Cl)ccc3n2C(=O)c2ccccc2)cc1 [Compound 496]	1	1	3.5	0.03
COc1ccc(-c2nc3ccc(Cl)cc3n2C(=O)c2ccccc2)cc1 [Compound 497]	1	1.5	3.5	0.05

Structure (SMILES)	Fold @ 1 nM [fold]	Fold @ 100 nM [fold]	Fold @ 10 uM [fold]	Fold relative to benchmark @ 100 nM [fold]
Clc1ccc2c(c1)nc1n2Cc2ccccc2-1 [Compound 522, 7-chloro-11H-benzo[4,5]imidazo[2,1-a]isoindole]	1	1	18	0.07
O=c1c2cccc3cccc(c32)c2nc3ccccc3n12 [Compound 523]	1.8	11.5	12	0.82
CC1(O)c2cccc3cccc(c23)-c2nc3ccccc3n21 (stereo not drawn) [Compound 525, 7-methyl-7H-benzo[de]benzo[4,5]imidazo[2,1-a]isoquinolin-7-ol]	1	5.6	20	0.4
c1ccc2c(c1)Cn1c3ccccc3c3ccnc-2c31 [Compound 526]	2.7	10	28	0.71
Cc1ccc(S(=O)(=O)n2c(-c3cccc4ccccc34)nc3cc(Cl)ccc32)cc1 [Compound 527, 5-chloro-2-(naphthalen-1-yl)-1-tosyl-1H-benzo[d]imidazole]	1	15	36	0.38
Cc1ccc(S(=O)(=O)n2c(-c3cccc4ccccc34)nc3ccc(Cl)cc32)cc1 [Compound 528, 6-chloro-2-(naphthalen-1-yl)-1-tosyl-1H-benzo[d]imidazole]	1	19	35	0.48
Clc1ccc2c(c1)nc(-c1cccc3ccccc13)n2Cc1ccccc1 [Compound 533, 1-benzyl-5-chloro-2-(naphthalen-1-yl)-1H-benzimidazole]	1	1	13	0.03
Cc1ccc(S(=O)(=O)n2c(-c3cccc4ccccc34)nc3ccccc32)cc1 [Compound 579]	1	1	2	0.07
O=C(c1ccc(F)c(F)c1)n1c(-c2ccc(F)c(Cl)c2)nc2cc(Cl)ccc21 [Compound 580]	1	3	14	0.2
O=C(c1ccc(F)c(F)c1)n1c(-c2ccc(F)c(Cl)c2)nc2ccc(Cl)cc21 [Compound 581]	1	1	15	0.07
O=C(c1ccccc1)n1c(-c2ccc(F)c(Cl)c2)nc2cc(Cl)ccc21 [Compound 582]	1	1	14	0.07
O=C(c1ccccc1)n1c(-c2cccc3ccccc23)nc2cc(F)ccc21 [Compound 583]	1	5	7	0.33
O=C(c1ccccc1)n1c(-c2ccc3ccccc3c2)nc2cc(F)ccc21 [Compound 584]	1	3	31	0.2
O=C(c1ccccc1)n1c(-c2ccc3ccccc3c2)nc2ccc(F)cc21 [Compound 585]	1	1	34	0.07
O=C(c1ccccc1)n1c(-c2cc3ccccc3o2)nc2ccc(Cl)cc21 [Compound 588]	1	5	30	0.33
COc1ccc(C(=O)n2c(-c3cc4ccccc4s3)nc3cc(Cl)ccc32)cc1 [Compound 590]	1	3	45	0.2
COc1ccc(C(=O)n2c(-c3cc4ccccc4s3)nc3ccc(Cl)cc32)cc1 [Compound 591]	2	2	38	0.13
